This is an account of results in patent publication US11213555B2, “Intravenous injection for enhancing immune function” (priority 2016, dated 2022).

Where two headings read alike, the source gives them in different places. Ends that are not written are not given here.

Assay [1] can be described thus: Spleen index (immune organ index) in normal mice. To be noted: 0.2 mg/kg via tail vein, once a day for five days, 2 h after last dose.
A short description of assay [2]: Spleen index (immune organ index) in immunosuppressed mouse models. Conditions: immunosuppressed mice (dexamethasone 40 mg/kg i.p., five days); 0.2 mg/kg via tail vein, once a day for five days.
The test system of assay [3] is Ehrlich ascites carcinoma. The assay is described as follows: Body weight gain and spleen index of Ehrlich ascites carcinoma mice. To be noted: EAC ICR mice; 0.2 mg/kg via tail vein, one day before inoculation then 7 consecutive days.
Assay [4] concerns monocytes-macrophages. The assay is described as follows: Carbon clearance assay, phagocytosis of monocytes-macrophages in normal mice. To be noted: normal Kunming mice; 0.2 mg/kg via tail vein, once a day for five days; 2 h after last dose.
Assay [5] has as its system monocytes-macrophages. To be noted: immunosuppressed mice (dexamethasone 40 mg/kg i.p., five days); 0.2 mg/kg via tail vein, once a day for five days.

Take RKDVY [Thymopentin, thymopentin]: the “Spleen index (%)” value in assay [1] is recorded as 0.642 ± 0.091%; in assay [2], 0.546 ± 0.097^ΔΔ %; in assay [3] it was 0.221 ± 0.036%. In assay [3], the “Body weight gain” value turned out to be 6.190 ± 2.087 g. In addition, the “Carbon clearance index K × 10^3” value in the assay with monocytes-macrophages [4] was 4.874 ± 0.582 ^; with monocytes-macrophages [5] it was 7.773 ± 1.018^ΔΔ.
